Source: patent publication US20200216454A1, “BIFUNCTIONAL MOLECULES FOR HER3 DEGRADATION AND METHODS OF USE” (Dana-Farber Cancer Institute, Inc., priority 2016, published 2020)

How the values were obtained:
Her3 [1] = biological target: T1, Her3 (Homo sapiens, UniProt P21860); assay: Her3 protein degradation by Western blot; format: cell-based; parameters: endogenous in cells; host or cells: PC9-GR4; Ovacar 8; key: (+): Her3 protein was degraded; (−): Her3 protein was not degraded; details: PC9-GR4 or Ovacar 8 cell lines, 2 μM, 4 hour and 8 hour
Experimental: Cells are seeded at the desired density the day before treatment starts with bifunctional compounds of the application at various concentration. After 4 to 12 hrs, cells are washed with buffer and lysed. The lysates are centrifuged and the supernatant is collected. Protein concentrations are measured using a protein assay kit, such as the BCA protein assay kit, Pierce, catalog number 23225) and normalized. Samples are run on a SDS-PAGE gel, and transferred to a PVDF membrane. The PVDF membrane is probed with the appropriate antibody.
Her3 protein degradation was assessed by Western blots after treatment of PC9-GR4 cell lines or Ovacar 8 cell lines with 2 μM of representative compounds for 4 hour and 8 hour.
Cells were seeded at a density of […] per 6 cm plate the day before treatment started with representative compounds of the application at the indicated concentration. After 4 to 12 hours, cells were washed with phosphate-buffered saline. Lysis buffer included 50 mM Tris-HCl, 150 mM NaCl, 1% NP-40, and 5 mM EDTA, pH 7.4+/−0.2, Roche PhosSTOP phosphatase inhibitor cocktail tablets and Roche Complete Protease inhibitor cocktail tablets. Cell lysis was accomplished by the addition of lysis buffer for 5-10 minutes on ice. Lysates were centrifuged in a microcentrifuge at 14,000 r.p.m. for 15 minutes at 4° C. and the supernatant was collected. Protein concentrations were measured using BCA protein assay kit (Pierce, catalog number 23225) and normalized. Samples were run on a 4%-12% SDS-PAGE gel at 120 V. After transfer, the PVDF membrane was probed with anti-Her3 antibody, Santa Cruz, catalog number sc-285 at 1:1000 dilution.
Target sequence in this assay (P21860 20-1342): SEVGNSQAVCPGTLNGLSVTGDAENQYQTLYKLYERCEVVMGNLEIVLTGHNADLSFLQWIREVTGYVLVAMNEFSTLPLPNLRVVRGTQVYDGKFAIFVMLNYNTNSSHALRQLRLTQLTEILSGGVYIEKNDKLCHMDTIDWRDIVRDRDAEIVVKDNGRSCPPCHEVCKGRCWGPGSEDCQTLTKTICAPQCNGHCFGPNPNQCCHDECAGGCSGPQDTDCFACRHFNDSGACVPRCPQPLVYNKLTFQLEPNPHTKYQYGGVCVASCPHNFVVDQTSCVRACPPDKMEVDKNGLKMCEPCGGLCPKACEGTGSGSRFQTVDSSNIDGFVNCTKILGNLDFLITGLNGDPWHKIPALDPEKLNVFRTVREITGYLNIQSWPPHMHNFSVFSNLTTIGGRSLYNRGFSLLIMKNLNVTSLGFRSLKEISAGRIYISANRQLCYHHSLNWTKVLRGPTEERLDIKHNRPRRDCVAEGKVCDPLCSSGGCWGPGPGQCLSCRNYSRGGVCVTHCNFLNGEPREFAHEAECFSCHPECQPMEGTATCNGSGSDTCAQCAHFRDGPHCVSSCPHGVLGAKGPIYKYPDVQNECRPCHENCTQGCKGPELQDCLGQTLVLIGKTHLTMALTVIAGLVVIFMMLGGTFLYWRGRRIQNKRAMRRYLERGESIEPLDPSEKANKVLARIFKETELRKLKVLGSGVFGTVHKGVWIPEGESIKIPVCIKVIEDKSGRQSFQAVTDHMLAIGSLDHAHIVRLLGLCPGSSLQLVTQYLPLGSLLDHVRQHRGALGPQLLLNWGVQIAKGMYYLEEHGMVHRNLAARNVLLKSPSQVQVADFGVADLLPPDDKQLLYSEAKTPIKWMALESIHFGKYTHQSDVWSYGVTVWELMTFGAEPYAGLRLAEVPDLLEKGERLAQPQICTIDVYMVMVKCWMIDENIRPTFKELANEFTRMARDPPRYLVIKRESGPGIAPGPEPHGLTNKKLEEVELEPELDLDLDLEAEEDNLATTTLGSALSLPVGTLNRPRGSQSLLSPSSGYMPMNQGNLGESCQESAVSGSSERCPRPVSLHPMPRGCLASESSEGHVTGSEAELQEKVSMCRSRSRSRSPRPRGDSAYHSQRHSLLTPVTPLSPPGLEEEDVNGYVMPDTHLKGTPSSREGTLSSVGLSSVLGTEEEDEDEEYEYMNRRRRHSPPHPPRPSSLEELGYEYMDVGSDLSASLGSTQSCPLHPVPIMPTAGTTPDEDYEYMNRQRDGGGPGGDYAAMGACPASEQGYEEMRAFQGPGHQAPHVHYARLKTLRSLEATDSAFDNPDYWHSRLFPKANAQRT

PC9-GR4 = assay: Anti-proliferation MTS assay, PC9-GR4; format: cell-based; details: 72 h, PC9-GR4 cells, 3 days, read-out: Cell lines (EC50, μM) PC9-GR4
Experimental: (§1) Cells are seeded and incubated for 3 d after bifunctional compounds of the application are added. Cell viability is measured via MTS Assay. This assay uses a colorimetric method to determine the number of viable cells based on the bioreduction of MTS by cells to a formazan product that is soluble in cell culture medium and can be detected spectrophotometrically. In a typical experiment, the supernatant is removed and replaced by 100 μl of RPMI media supplemented with MTS reagent and PMS. The plates are measured with Perkin Elmer EnVision after reaching an optical density (OD) of 1.0-2.0 at a wavelength of 490 nm. The cell numbers are normalized compared to DMSO control, and the EC50 values are calculated using GraphPad Prism.
(§2) Five cell lines, PC9-GR4, 826-GR6, Ovacar 8, A549, and Ovacar 5 were grown and treated with representative compounds Viability of the cells after the treatment was assessed by MTS assay.
(§3) The anti-proliferation assay was carried out using 96-well clear bottom plates. […] Cell viability was measured via MTS Assay. This assay uses a colorimetric method to determine the number of viable cells based on the bioreduction of MTS by cells to a formazan product that is soluble in cell culture medium and can be detected spectrophotometrically. […] The plates were measured with Perkin Elmer EnVision after reaching an optical density (OD) of 1.0-2.0 at a wavelength of 490 nm. […]

Ovacar 5 = assay: Anti-proliferation MTS assay, Ovacar 5; format: cell-based; details: 72 h, Ovacar 5 cells, 3 days, read-out: Cell lines (EC50, μM) Ovacar 5
Experimental: as §1, §2, §3

826-GR6 = assay: Anti-proliferation MTS assay, 826-GR6; format: cell-based; details: 72 h, 826-GR6 cells, 3 days, read-out: Cell lines (EC50, μM) 826-GR6
Experimental: as §1, §2, §3

Ovacar 8 = assay: Anti-proliferation MTS assay, Ovacar 8; format: cell-based; details: 72 h, Ovacar 8 cells, 3 days, read-out: Cell lines (EC50, μM) Ovacar 8
Experimental: as §1, §2, §3

A549 = assay: Anti-proliferation MTS assay, A549; format: cell-based; details: Homo sapiens, 72 h, A549 cells, 3 days, read-out: Cell lines (EC50, μM) A549
Experimental: as §1, §2, §3

Her3 [2] = biological target: T1, Her3; assay: LanthaScreen Eu kinase binding assay; parameters: purchased Life Technologies; details: read-out: Binding Affinities (IC50)
Experimental: Lantha screening is performed by following the method reported in Nature Chemical Biology, 10, 1006-1012 (2014).
Binding affinities (IC50) of representative compounds were measured by the Life Technologies LanthaScreen Eu kinase binding assay, which was previously described (Xie T. et al., Nat. Chem. Biol. 2014, 10, 1006-1012).
Lantha screening was performed by following the method reported in Nature Chemical Biology, 10, 1006-1012 (2014).
Target sequence in this assay (P21860 20-1342, species assumed): as the sequence (P21860 20-1342) above

Structure (SMILES) | Her3 Degradation (Her3 [1]) | IC50 (Her3 [2]) [µM] | also measured
C=CC(=O)Nc1cc(-c2nn(C3CCN(CCOCCOCCOCCC(=O)N[C@@H](C(=O)N4C[C@@H](O)C[C@@H]4C(=O)NCc4ccc(-c5scnc5C)cc4)C(C)(C)C)CC3)c3ncnc(N)c23)ccc1Oc1ccccc1 [Compound PP1] | − |  | 
C=CC(=O)Nc1cc(-c2nn(C3CCN(CC(=O)N[C@@H](C(=O)N4C[C@@H](O)C[C@@H]4C(=O)NCc4ccc(-c5scnc5C)cc4)C(C)(C)C)CC3)c3ncnc(N)c23)ccc1Oc1ccccc1 [Compound PP2] | + |  | EC50 (PC9-GR4): 5 to 15 µM; EC50 (Ovacar 5): 5 to 15 µM; EC50 (826-GR6): 5 to 15 µM; EC50 (Ovacar 8): < 5 µM; EC50 (A549): 5 to 15 µM
C=CC(=O)Nc1cc(-c2nn(C3CCN(CC(=O)NCCCCCCCCNC(=O)COc4cccc5c4C(=O)N(C4CCC(=O)NC4=O)C5=O)CC3)c3ncnc(N)c23)ccc1Oc1ccccc1 (stereo not drawn) [Compound PP4] | + |  | EC50 (Ovacar 8): 5 to 15 µM
Cc1ncsc1-c1ccc(CNC(=O)[C@@H]2C[C@@H](O)CN2C(=O)[C@@H](NC(=O)CCOCCOCCOCCN2CCC(n3nc(-c4ccc(Oc5ccccc5)c([N+](=O)[O-])c4)c4c(N)ncnc43)CC2)C(C)(C)C)cc1 [Compound PP8] | + | > 0.1 | EC50 (PC9-GR4): > 15 µM

Continued, in another order:

Her3 Degradation (Her3 [1]) | IC50 (Her3 [2]) [µM] | Structure (SMILES) | also measured
+ |  | C=CC(=O)Nc1cc(-c2nn(C3CCN(CC(=O)NCCCCNC(=O)COc4cccc5c4C(=O)N(C4CCC(=O)NC4=O)C5=O)CC3)c3ncnc(N)c23)ccc1Oc1ccccc1 (stereo not drawn) [Compound PP3] | 
− |  | C=CC(=O)Nc1cc(-c2nn(C3CCN(CC(=O)NCCCOCCOCCOCCCNC(=O)COc4cccc5c4C(=O)N(C4CCC(=O)NC4=O)C5=O)CC3)c3ncnc(N)c23)ccc1Oc1ccccc1 (stereo not drawn) [Compound PP5] | 
− | 0.01 to 0.1 | Nc1ncnc2c1c(-c1ccc(Oc3ccccc3)c([N+](=O)[O-])c1)nn2C1CCN(CC(=O)NCCOCCOCCOCCNC(=O)COc2cccc3c2C(=O)N(C2CCC(=O)NC2=O)C3=O)CC1 (stereo not drawn) [Compound PP6] | 
− | 0.01 to 0.1 | Nc1ncnc2c1c(-c1ccc(Oc3ccccc3)c([N+](=O)[O-])c1)nn2C1CCN(CC(=O)NCCCCNC(=O)COc2cccc3c2C(=O)N(C2CCC(=O)NC2=O)C3=O)CC1 (stereo not drawn) [Compound PP7] | 
